The record followed here is patent publication US20050209271A1, “Form of renzapride hydrochloride hydrate and uses thereof” (priority 2003, published 2005).

Common to all, as to type: physicochemical
The nature of series [1]: Particle size distribution. The settings on record: 5 kg batch. The protocol:
The Particle Size Distribution (PDS) of renzapride is measured according to the method detailed below. [table] • Vibration feed rate: 40% • Air pressure: 3.5 Bar Single measurement of each batch performed in triplicate.

Series [2] can be described thus: Storage stability at 25° C./60% relative humidity. The settings on record: 25° C./60% RH. The protocol: Samples of Form II renzapride hydrochloride hydrate were placed in storage under conditions of 25° C./60% relative humidity.
The nature of series [3]: Intrinsic dissolution rate (IDR) of compressed discs in a static dissolution system. The protocol: The samples were prepared as discs. Each disc was prepared by compressing the sample for 5 minutes at 2 tons of pressure. Each disc was transferred to a static dissolution system, whereby one surface of the disc is exposed to the dissolution medium. Six discs were prepared from each batch of material for duplicate intrinsic dissolution rate (IDR) determinations at pHs 2.2, 4.0 and 7.0. Dissolution samples (0.8 ml) were withdrawn at 5 minute intervals up to 60 minutes and samples were analysed. The amount of drug released (mg) is divided by the surface area of the disc (0.5 cm^2) to obtain an amount per unit area (mg cm^−2). The average of the duplicate determinations is plotted as a function of time (minutes). The IDR (mg cm^−2 minutes^−1) is given by the gradient (determined by linear regression) over the linear range of the release profile. When the dissolution into solution is deemed independent of pH, a pH independent IDR is calculated. The pH independent IDR is calculated by averaging the data for each time point at all of the pHs studied and calculating the linear regression on at least the first 5 data points. All IDR values are reported with the error encompassing the upper and lower 95% confidence limits of the linear regression. Linear regression analysis of the IDR data used all of the data points, as the release profiles are linear.

Series [4] in a line: Dynamic vapour sorption (DVS), adsorption/desorption cycles between 0 and 90% RH. The source says: Each sample was placed into a sample pan and loaded into the DVS system. An initial weight reading was taken. The sample was then exposed to an atmosphere with a relative humidity (RH) of 0% to dry the sample and a dry weight reading taken. The sample was exposed to an adsorption/desorption cycle between 0 and 90% RH in 10% RH intervals. The change in weight data was fitted to an exponential expression that was used to automatically determine the end point of each stage, which then triggers the next increase/decrease in relative humidity. For the DVS traces, the stepped lines represent the relative humidity (RH) level in the Chamber. The curved line represents the weight change in the sample. The RH was controlled automatically and changes once the rate of change in weight of the sample is small.

For `COc1cc(N)c(Cl)cc1C(=O)NC1CCN2CCCC1C2.Cl` (centres unmarked) [Form II, renzapride hydrochloride hydrate], in series [1], the “Span = (d(0.9) − d(0.1))/d(0.5)” value is reported as 2.1, the “d (0.1)” value is listed as 11.5 μm, the “d(0.5)” value came to 47.1 μm and the “d(0.9)” value was 109.0 μm. Moreover, in series [2] (t = 0 months), the Description result was “White” and the “Water content (by Karl Fisher)” value is 8.9%(w/w). Further, in series [2] (t = 6 months), the Description result is given as “White” and the “Water content (by Karl Fisher)” value is 8.6%(w/w). In series [2] (t = 12 months), the Description result was “White” and the “Water content (by Karl Fisher)” value is on record as 8.8%(w/w). In series [2] (t = 18 months), the Description result was “White” and the “Water content (by Karl Fisher)” value is on record as 8.8%(w/w). In series [2] (t = 24 months), the Description result is given as “White” and the “Water content (by Karl Fisher)” value was 8.8%(w/w). For the same molecule, the “IDR independent (pH independent IDR)” value in series [3] (data averaged over all pHs studied, error = 95% confidence limits) is reported as 5.7 ± 0.3 mg/min/cm^2. In addition, in series [3] (pH 2.2, error = 95% confidence limits of linear regression), the “IDR pH 2.2” value was 5.5 ± 0.2 mg/min/cm^2. Also, the “IDR pH 4.0” value in series [3] (pH 4.0, error = 95% confidence limits of linear regression) came to 5.7 ± 0.2 mg/min/cm^2. The “IDR pH 7.0” value in series [3] (pH 7.0, error = 95% confidence limits of linear regression) is reported as 5.9 ± 0.3 mg/min/cm^2. In addition, in series [4] (chamber at 90% RH), the “moisture taken up at 90% RH (DVS)” value is ~9.5 % (w/w). The “uptake in moisture at 10% RH (DVS)” value in series [4] (exposure to 10% RH, initial uptake) was “ca. 9 % (w/w)”.
